Results on 12 compounds are retold here after patent publication US10934529B2, “Three dimensional hydrogels for culturing organoids” (Ecole Polytechnique Fèdèrale de Lausanne, priority 2015, dated 2021).

“Also recorded” adds a separate entry of the source.

Holding throughout (type): cell-based, mouse
One test concerns ISC colonies. Kind of test: ISC colony differentiation and intestinal organoid formation. The following applies: for Organoid formation from ISCs grown in soft laminin-containing gels: after switching to organoid formation conditions; for ISC colony differentiation and organoid formation in soft PEG-RGD gels supplied with an ECM component: colonies grown in 1 kPa PEG-RGD, transferred into soft F-PEG-RGD, differentiation conditions. The method, then: To induce stem cell differentiation and organoid formation, the medium was removed, the gels were incubated in PBS (1 hr, […]) to remove residual CHIR99021 and valproic acid, and fresh medium containing EGF, Noggin and Respondin was added. In general, growth factors were replenished every two days, with full medium change taking place every four days.
Intestinal organoids embedded in Matrigel or PEG were fixed with 4% paraformaldehyde (PFA) in PBS (30 min, RT). The fixation process typically led to complete degradation of the Matrigel. […] Following resuspension in water, the organoids were spread on glass slides and allowed to attach by drying. Attached organoids were rehydrated by adding PBS. Following fixation, organoids embedded in PEG or spread on glass were permeabilized with 0.2% Triton X-100 in PBS (1 h, RT) and blocked (10% goat serum in PBS containing 0.01% Triton X-100) for at least 2 h. Samples were subsequently incubated with blocking buffer-dissolved phalloidin-Alexa 546 (Invitrogen) and primary antibodies against lysozyme (1:50; Thermo Scientific) or mucin-2 (1:25; Santa Cruz) (overnight, 4° C.). After washing with PBS for 3 h (during which PBS was replaced every hour), samples were incubated with secondary antibody (Alexa 647) organoids were imaged in epifluorescence (Zeiss Axio Observer Z1) or confocal (Zeiss LSM 710) mode.

The test system of test [1] is intestinal stem cells (ISCs). Kind of test: ISC colony formation efficiency / ISC expansion in hydrogels. The following applies: for ISC colony formation, ECM component in combination with RGD / ISC colony formation / self-renewal, ECM component alone: component in soft (300 Pa) or stiff (1300 Pa) PEG matrices; for ISC colony formation / self-renewal, ECM component alone: without RGD; for Expansion of Lgr5+ cells: supplement to standard intestinal organoid growth medium, PEG-RGD culture. The method, then: Freshly isolated crypts or single cells from dissociated colonies were added to the Matrigel or hydrogels precursor solution and cast in 20-μL droplets at the bottom of wells in 24-well plate. […] For single cell culture, thiazovivin (2.5 μM; Stemgent) and Jagged-1 peptide ([…]; Anaspec) was included in the medium during the first two days. Broad spectrum protease inhibitor, GM6001, was added to the medium while embedding the cells in PEG hydrogels. Every two days the growth factors were replenished and the full medium was changed.
(§1) To quantify the colony formation efficiency of single embedded ISCs, phase contrast z-stacks spanning the entire thickness of the cell-laden Matrigel or PEG gels were collected (Zeiss Axio Observer Z1) at 5 different locations within the gels. The Cell Counter plugin in ImageJ (NIH) was used to quantify the fraction of cells which had formed colonies at day 4 after seeding. To assess the viability of intestinal tissue fragments embedded in PEG, phase contrast images of the entire gel were collected. The fraction of viable tissues was estimated based upon the epithelial morphology: tissues that featured an epithelial monolayer surrounding a central lumen after 24 h of embedding were deemed viable.

Test [2] deals with freshly-isolated intestinal crypts. Kind of test: Survival and morphogenesis of freshly isolated intestinal crypts embedded in 3D matrices. As to conditions: component presented alongside RGD in PEG-RGD hydrogel. From the text: Matrigel is currently used to grow epithelial organoids. To address the question of whether Matrigel serves as merely a passive 3D scaffold, providing physical support, or actively influences organoid formation by presenting essential cues, freshly-isolated intestinal crypts were embedded into enzymatically crosslinked PEG hydrogels, which are soft and hydrated and thus mimic the basic physical properties of Matrigel without providing any biochemical signals.
Intestinal crypt isolation: Mouse intestine crypts were isolated following procedures known in the art. Briefly, the proximal part of the intestine was harvested, opened longitudinally and washed with ice-cold PBS. The luminal side of the intestine was scraped using a glass slide to remove luminal content and villous structures. After washing with ice-cold PBS again, the intestine was cut into 2-4 mm pieces with scissors. The pieces were transferred to a 50 ml Falcon tube and further washed with cold PBS (5-10 times) with gentle vortexing. […]
To quantify the colony formation efficiency of single embedded ISCs, phase contrast z-stacks spanning the entire thickness of the cell-laden Matrigel or PEG gels were collected (Zeiss Axio Observer Z1) at 5 different locations within the gels. The Cell Counter plugin in ImageJ (NIH) was used to quantify the fraction of cells which had formed colonies at day 4 after seeding. […]

The next test relates to intestinal organoids. As to the kind of experiment: Viability, growth and morphogenesis of intestinal organoids / tissue fragments in hydrogels.
Excerpt: To identify a short sequence that supports intestinal cell survival, a library of soft (G′=200 Pa) hydrogels was created, in which specific binding sequences from the laminin al subunit (Table 1) were tethered to the PEG backbone.
as §1

A further test relates to Lgr5-EGFP. As to the kind of experiment: Lgr5-EGFP reporter expression in colonies and organoids. As to conditions: cultured in the presence of collagen-I. From the text:
Lgr5-EGFP was expressed in the expected pattern, localized to the crypt-like buds of the organoids (FIG. 3B). […] Stem cell differentiation into functional cell types was confirmed by immunofluorescence analysis. Staining for lysozyme verified the presence of Paneth cells in the expected locations, interspersed with Lgr5+ stem cells in the characteristic checkerboard pattern (FIG. 3F). The organoids therefore retained the normal characteristics of epithelial cell organoids during culture in the hydrogels.
Intestinal crypts were extracted from 5-10 week old heterozygous Lgr5-EGFP-IRES-CreERT2 mice (Jackson Laboratory), following animal experimentation protocols prescribed by EPFL and FELASA.

On to “Laminin-111: extracellular matrix glycoprotein, heterotrimer of α, β and γ chain”, for which, in the test with ISC colonies (listed as laminin), the “Organoid formation from ISCs grown in soft laminin-containing gels” value is recorded as “give rise to organoids”. In addition, in the test on ISC colonies (listed as laminin-111), the “Organoid formation from ISCs grown in soft laminin-containing gels” value is recorded as “a small portion of the ISC colonies gave rise to intestinal organoids”. For the same compound, the “ISC colony differentiation and organoid formation in soft PEG-RGD gels supplied with an ECM component” value in the test on ISC colonies was “pronounced morphogenesis and organoid formation; also recorded: required for organoid formation”. For the same compound, in test [1], the “ISC colony formation, ECM component in combination with RGD” value (shortened to “ISC colony formation, ECM component”) is “increased colony formation efficiency” and the “ISC colony formation / self-renewal, ECM component alone” value (from here on “ISC colony formation / self-renewal”) is reported as “effectively supported colony formation in soft matrices; also recorded: supports ISC colony formation within soft matrices”. Also, the “Stiffness at which ISC colony formation efficiency peaks” value in test [1] (laminin-containing gels) is 700 Pa. Moreover, the ISC colony formation in test [1] (soft hydrogels containing both RGD and laminin-111) is given as 30-50%. In test [1] (soft, 300 Pa hydrogel), the “Efficiency in inducing ISC colony formation compared with RGD” value was “significantly more efficient”.
As to “laminin-511: ECM component incorporated in PEG hydrogels”, in test [1], the “ISC colony formation, ECM component” value was “no effect” and the “ISC colony formation / self-renewal” value was “no effect”.
With “Perlecan: ECM component incorporated in PEG hydrogels”, the “ISC colony differentiation and organoid formation in soft PEG-RGD gels supplied with an ECM component” value with ISC colonies is “failed to support ISC colony differentiation and organoid formation”. Further, in test [1], the “ISC colony formation, ECM component” value is “starkly increased colony formation efficiency” and the “ISC colony formation / self-renewal” value is reported as “did not alter ISC self-renewal”.
Regarding Fibronectin, the “ISC colony differentiation and organoid formation in soft PEG-RGD gels supplied with an ECM component” value in the test with ISC colonies is “failed to support ISC colony differentiation and organoid formation”. In test [1], the “ISC colony formation, ECM component” value is on record as “no added effect” and the “ISC colony formation / self-renewal” value is given as “appreciable colony formation only in stiff matrices”.
In the case of `CCCC(CCC)C(=O)O` [valproic acid, reference compound], the “Expansion of Lgr5+ cells” value in test [1] is “increased”.
As to “RKRLQVQLSIRT [AG73, synthetic peptide derived from the globular domain of the laminin al chain]”, in test [2], the Crypt viability entry was “synergistic increase in crypt viability”. Besides, in the test on intestinal organoids (soft (G'=200 Pa) PEG hydrogels with tethered laminin a1 subunit binding sequences), the Organoid viability entry was “significantly enhanced organoid viability”. For the same compound, the “Effect of amount of tethered AG73 on organoid viability and growth” value with intestinal organoids (varying amount of AG73 tethered to PEG gel backbone) is given as “dose-dependent effect; also recorded: concentration-dependent”. The “ISC colony differentiation and organoid formation in soft PEG-RGD gels supplied with an ECM component” value with ISC colonies is “showed some early signs of differentiation and morphogenesis; also recorded: failed to support ISC colony differentiation and organoid formation”.
Turning to `CNC(=O)[C@H](Cc1c[nH]c2ccccc12)NC(=O)[C@@H](CC(=O)NO)CC(C)C` [GM6001, reference compound], the “Colony formation efficiency on blocking MMP activity, high matrix stiffness” value in test [1] (printed: within non-degradable gels, high stiffness) is given as “reduced it to levels observed in non-degradable gels”. Also, the “Colony formation efficiency on blocking MMP activity, low matrix stiffness” value in test [1] (printed: within non-degradable gels, low stiffness) is “did not alter colony formation efficiency”.
Consider `Cc1ccc2c(c1)C(=O)C1(O)CCN(c3ccccc3)C1=N2` (stereo not drawn) [blebbistatin, reference compound], for which, in test [1] (PEG-RGD matrices of varying stiffness), the “Effect of blocking myosin-mediated contractility on colony formation efficiency” value was “abolished the stiffness-induced increase in colony formation efficiency”.
“Arginine-Glycine-Aspartic Acid [RGD, reference compound]”: the “Shear modulus at which ISC expansion / colony formation efficiency is optimal” value in test [1] (RGD-containing gels of varying stiffness) came out at 1.3 kPa. In test [1] (TG-PEG-RGD, varying RGD), the “RGD concentration at which ISC colony formation efficiency reached a plateau” value was “approximately 500 μM”.
Regarding `Cc1c[nH]c(-c2cnc(NCCNc3ccc(C#N)cn3)nc2-c2ccc(Cl)cc2Cl)n1` [CHIR99021, reference compound], the “Expansion of Lgr5+ cells” value in test [1] is on record as “increased”.
With “Collagen-I: ECM component incorporated in PEG hydrogels”, the “Lgr5-EGFP in viable cells and colonies” value in the test on Lgr5-EGFP is recorded as “largely devoid of Lgr5-EGFP”. Moreover, in test [1], the “ISC colony formation, ECM component” value is given as “did not have a striking effect”. Also, in test [1] (soft hydrogels with collagen-I and RGD), the ISC morphology result is reported as “adopted a spindle-like morphology”.
For Hyaluronic acid [reference compound], the Crypt viability entry in test [2] is given as “synergistic increase in crypt viability”. For the same compound, the “ISC colony differentiation and organoid formation in soft PEG-RGD gels supplied with an ECM component” value with ISC colonies was “failed to support ISC colony differentiation and organoid formation”. In test [1], the “ISC colony formation, ECM component” value was “did not appear to influence”.
